The values that follow are results of earlier work, collected in publication PMC4718634, “Murine GPRC6A Mediates Cellular Responses to L-Amino Acids, but Not Osteocalcin Variants” (PLoS ONE, 2016).

The test system of data set [1] is pancreatic islets. As to conditions: GPRC6A-dependent; ref [31]; cited from earlier work. From the text:
(§1) Given the range of OCN variants profiled, we propose that species and/or carboxylation status is unlikely to be a cause of the lack of activity in our assays. Other potential explanations are that the species of GPRC6A is critical or that HEK293 cells lack the necessary scaffolding and/or signalling proteins found in cells endogenously expressing GPRC6A. Unfortunately, human GPRC6A was not expressed at the cell surface in our cells, precluding a study of its pharmacology. However, we identified a range of immortalised murine entero-endocrine and pancreatic β-cell lines that express Gprc6a mRNA ...

Data set [2] relates to βTC-6 cells. As to conditions: GPRC6A-dependent; ref [12]; cited from earlier work.
Description: as §1

Regarding “OCN: osteoblast-derived peptide, osteocalcin; variant not specified at the place (YLYQWLGAPVPYPDPLEPRREVCELNPDCDELADHIGFQEAYRRFYGPV; UniProt P02818 52-100, looked up)”, the insulin secretion result in data set [1] is “increase insulin secretion from pancreatic islets”. Moreover, the ERK1/2 phosphorylation entry in data set [2] is given as “engender ERK1/2 phosphorylation”.
